What was measured:
ABHD6 [1] = molecular target: T1, ABHD6 (Mus musculus, UniProt Q8R2Y0); test: In vitro competitive activity-based protein profiling (Table 2, % inhibition at 1 μM); format: biochemical; details: read-out: % Inhibition at 1 μM ABHD6
T1 sequence (Q8R2Y0 1-336): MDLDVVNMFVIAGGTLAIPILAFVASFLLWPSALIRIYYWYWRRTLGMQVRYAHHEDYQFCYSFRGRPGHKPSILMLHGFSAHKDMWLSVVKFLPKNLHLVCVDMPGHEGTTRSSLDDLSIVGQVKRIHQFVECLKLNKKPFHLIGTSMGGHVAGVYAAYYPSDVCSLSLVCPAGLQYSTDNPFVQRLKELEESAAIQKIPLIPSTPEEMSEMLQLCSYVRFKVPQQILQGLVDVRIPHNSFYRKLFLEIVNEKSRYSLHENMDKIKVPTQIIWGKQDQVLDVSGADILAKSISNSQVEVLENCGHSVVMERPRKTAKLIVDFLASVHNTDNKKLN

FAAH [2] = molecular target: T2, FAAH (Mus musculus, UniProt O08914); test: as above; format: biochemical; details: read-out: % Inhibition at 1 μM FAAH
T2 sequence (O08914 1-579): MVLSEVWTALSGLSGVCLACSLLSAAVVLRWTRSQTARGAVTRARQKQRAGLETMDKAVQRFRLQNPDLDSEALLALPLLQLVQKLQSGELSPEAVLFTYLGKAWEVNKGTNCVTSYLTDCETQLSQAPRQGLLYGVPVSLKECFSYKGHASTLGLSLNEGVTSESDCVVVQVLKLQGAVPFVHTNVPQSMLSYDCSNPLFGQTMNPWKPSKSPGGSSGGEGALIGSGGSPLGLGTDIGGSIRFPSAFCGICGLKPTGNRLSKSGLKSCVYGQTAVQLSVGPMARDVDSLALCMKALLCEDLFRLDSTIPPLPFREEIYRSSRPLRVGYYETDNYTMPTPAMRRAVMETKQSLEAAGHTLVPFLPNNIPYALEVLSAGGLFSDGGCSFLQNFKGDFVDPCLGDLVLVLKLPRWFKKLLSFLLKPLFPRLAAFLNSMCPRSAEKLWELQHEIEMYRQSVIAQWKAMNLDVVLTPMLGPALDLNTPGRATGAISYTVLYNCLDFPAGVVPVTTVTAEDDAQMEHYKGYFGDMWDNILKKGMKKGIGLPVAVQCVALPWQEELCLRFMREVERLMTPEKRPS

ABHD6 [3] = molecular target: T1, ABHD6; test: biochemical; details: in vitro competitive ABPP
MAGL [4] = molecular target: T3, MAGL (Mus musculus, UniProt O35678); test: biochemical; details: mouse; in vitro competitive ABPP; read-out: Mouse (IC50 value, nM) MAGL
T3 sequence (O35678 1-303): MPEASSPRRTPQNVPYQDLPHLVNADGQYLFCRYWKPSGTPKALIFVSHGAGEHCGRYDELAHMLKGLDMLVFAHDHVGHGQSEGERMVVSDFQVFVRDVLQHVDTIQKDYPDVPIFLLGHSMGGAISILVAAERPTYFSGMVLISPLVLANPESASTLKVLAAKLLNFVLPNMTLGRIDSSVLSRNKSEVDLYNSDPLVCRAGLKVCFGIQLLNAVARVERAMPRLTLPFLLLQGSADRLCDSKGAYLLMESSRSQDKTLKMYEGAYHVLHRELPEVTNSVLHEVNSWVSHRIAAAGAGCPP

FAAH [5] = molecular target: T2, FAAH; test: biochemical; details: in vitro competitive ABPP
MAGL [6] = molecular target: T3, MAGL; test: In vitro competitive activity-based protein profiling (Table 2, % inhibition at 1 μM); format: biochemical; details: read-out: % Inhibition at 1 μM MAGL
Procedure: After 30 min, FP—Rh (1.0 μL, 50 μM in DMSO) was added and the mixture was incubated for another 30 min at 37° C. Reactions were quenched with SDS loading buffer (50 μL-4×) and run on SDS-PAGE.
Cell lysates were diluted with mock proteomes for use in competitive ABPP experiments.

Compound	inhibition at 1 µM (ABHD6 [1]) [%]	inhibition at 1 µM (FAAH [2]) [%]	IC50 (ABHD6 [3]) [nM]	IC50 (MAGL [4]) [nM]	IC50 (FAAH [5]) [nM]	inhibition at 1 µM (MAGL [6]) [%]
O=C(OC(C(F)(F)F)C(F)(F)F)N1CC2CN(Cc3ccc(C(F)F)cc3N3CCCCC3)CC2C1 (stereo not drawn) [Example 204, 1,1,1,3,3,3-hexafluoropropan-2-yl 5-(4-(difluoromethyl)-2-(piperidin-1-yl)benzyl)hexahydropyrrolo[3,4-c]pyrrole-2(1H)-carboxylate]	< 25	< 25	1000 to 10000	< 100	1000 to 10000	> 75
O=C(OC(C(F)(F)F)C(F)(F)F)N1CC2CN(Cc3ccccc3-c3ccccc3)CC2C1 (stereo not drawn) [Example 12, 1,1,1,3,3,3-Hexafluoropropan-2-yl 5-[(2-phenylphenyl)methyl]-octahydropyrrolo[3,4-c]pyrrole-2-carboxylate]	< 25	25 to 75	> 10000	< 100	1000 to 10000	> 75
CCN1CCN(c2cccc(CN3CC4CN(C(=O)OC(C(F)(F)F)C(F)(F)F)CC4C3)c2C)CC1 (stereo not drawn) [Example 155, 1,1,1,3,3,3-hexafluoropropan-2-yl 5-[[3-(4-ethylpiperazin-1-yl)-2-methylphenyl]methyl]-octahydropyrrolo[3,4-c]pyrrole-2-carboxylate]	25 to 75	25 to 75	1000 to 10000	100 to 1000	1000 to 10000	> 75
O=C(OC(C(F)(F)F)C(F)(F)F)N1CC2CN(Cc3ccc(N4CCOCC4)cc3C(F)F)CC2C1 (stereo not drawn) [Example 200, 1,1,1,3,3,3-hexafluoropropan-2-yl 5-(2-(difluoromethyl)-4-morpholinobenzyl)hexahydropyrrolo[3,4-c]pyrrole-2(1H)-carboxylate]	< 25	25 to 75	1000 to 10000	100 to 1000	1000 to 10000	> 75
Cn1nc(-c2ccccc2)cc1CN1CC2CN(C(=O)OC(C(F)(F)F)C(F)(F)F)CC2C1 (stereo not drawn) [Example 194, 1,1,1,3,3,3-hexafluoropropan-2-yl 5-((1-methyl-3-phenyl-1H-pyrazol-5-yl)methyl)hexahydropyrrolo[3,4-c]pyrrole-2(1H)-carboxylate]	< 25	25 to 75	1000 to 10000	< 100	1000 to 10000	> 75
O=C(OC(C(F)(F)F)C(F)(F)F)N1CC2CN(Cc3ccc(N4CCCC4)cc3C(F)F)CC2C1 (stereo not drawn) [Example 202, 1,1,1,3,3,3-hexafluoropropan-2-yl 5-(2-(difluoromethyl)-4-(pyrrolidin-1-yl)benzyl)hexahydropyrrolo[3,4-c]pyrrole-2(1H)-carboxylate]	< 25	25 to 75	1000 to 10000	100 to 1000	1000 to 10000	> 75
CC(=O)N1CCC(n2nc(C)cc2CN2CC3CN(C(=O)OC(C(F)(F)F)C(F)(F)F)CC3C2)CC1 (stereo not drawn) [Example 60, 1,1,1,3,3,3-Hexafluoropropan-2-yl 5-[[1-(1-acetylpiperidin-4-yl)-3-methyl-1H-pyrazol-5-yl]methyl]-octahydropyrrolo[3,4-c]pyrrole-2-carboxylate]	< 25	< 25	1000 to 10000	100 to 1000	> 10000	> 75
CCN1CCN(c2c(C)cccc2CN2CC3CN(C(=O)OC(C(F)(F)F)C(F)(F)F)CC3C2)CC1 (stereo not drawn) [Example 148, 1,1,1,3,3,3-hexafluoropropan-2-yl 5-[[2-(4-ethylpiperazin-1-yl)-3-methylphenyl]methyl]-octahydropyrrolo[3,4-c]pyrrole-2-carboxylate]	< 25	< 25	1000 to 10000	100 to 1000	> 10000	> 75

From patent publication US9828379B2 (priority 2013, dated 2017)
